Measurements from patent US7071206B2, “Agents for treating neurodegenerative disorders” (Medivation, Inc., priority 1995, dated 2006).
Several values for one entry are separate records, joined by “and”; a condition that tells them apart may be missing. Equal entries are not always repeated.

System: patients suffering from Alzheimer's disease
Experiment: Clinical trial of dimebon tablets, inventors' scale (E. E. Bukatina et al.; 0 = absence of a symptom, 4 = greatest manifestation)
Type: in vivo, human
Settings: for Degree of irritability, M +/− m: mean of 7 patients having this symptom; for Values of cognitive functions, M +/− m: mean of 7 patients with unprofound dementia; for Marked depressive manifestation, M +/− m: mean of 8 patients with evident depression prior to treatment; for Intensity of headache, M +/− m: mean of 10 patients having this symptom; for number of patients with abatement or complete cessation of headaches / share of patients with abatement or complete cessation of headaches: of 10 patients
Experimental: The test was carried out under the direct supervision by two of the inventors, namely E. E. Bukatina and V. Grigorieva, in 14 patients who agreed to take part in the tests, 13 of whom lived in a boarding house for senile persons and one patient lived with their family.
Alzheimer's disease was diagnosed on the basis of criteria ICD-10 NINCDS ADRDA.
Dimebon in the form of tablets (comprising 10 mg of dimebon, 30 mg of lactose, 5 mg of magnesium stearate was prescribed for oral administration in a dose of 0.02 g three to times a day. The patients living in the boarding house received dimebon for 58 days. A patient (observation 14) who was under outpatient observation continued taking the agent for a month after the completion of the tests.
Before the treatment with dimebon, and at 4 and 8 weeks after treatment the patients were examined according to Hazegawa's scale and the inventors' scale (“Social and Clinical Psychiatry”, 1992, No.4, pp.29–37) which includes the following indexes: (1) orientation in locality, time, immediate surroundings and one's own personality; (2) orientation in space; (3) memory for the past; (4) memory for the present; (5) “life in the past”; (6) (a) articulation, (b) difficulty in finding words, and distortion of words; (c) naming of objects; (d) following instructions; (7) concentration (of attention); (8) an affective sphere; (a) high spirits, (b) low spirits; (9) delirium; (10) hearing hallucinations; (11) visual hallucinations; (12) senile or senile-like confusion (when motion anxiety is accompanied by the revival of the past experience); (13) irritability; (14) anxiety; (15) asthenia; (16) headaches; (17) dizziness; (18) tearfulness; (19) spontaneous activity; (20) elementary self-service; and (21 control of sphincters.
According to the Hazegawa's scale, the 0 score indicates the poorest result; on the contrary, according to the inventors' scale, the 0 score indicates the absence of a symptom 4 score indicates the greatest manifestation thereof. […] Before the therapy was started, the patients had been independently examined by two doctors who used the inventors' scale. The examination during the treatment was carried out by the doctors using both the scales. The evaluation according to all the inventors' scale points during all the tests and their variations during the treatment with dimebon are given in the Appendix.
According to the inventors' scale, the degree of the disturbance if the cognitive functions was determined by a sum of evaluations according to the first 5 scale points reflecting the condition of memory, orientation and relation with the reality. The disturbance of speech was dealt with separately and was determined by a sum of evaluations according to items 6b-6d.
Both absolute evaluations of the signs under investigation (the evaluation prior to treatment is a mean evaluation of the two examinations) and variations in them were analysed in the course of therapy. In doing so, only those changes that were beyond the range of evaluations obtained in two pre-treatment examinations were taken into consideration.
The test results reflected the condition of the patients at the time of the examination. Any changes in the metal state observed in the interval between the tests and disappearing by the moment of examination according to the scale were described in the section “Clinical Observations”.
The statistical data processing was carried out by means of Student's t-test and Fisher's “Fi” criterion.

[1] = change at 8 weeks vs K1, K2, per patient, listed as dimebon
[2] = marked (by more than 1 score), 8 weeks
[3] = mean of 14 patients, after 4 weeks
[4] = mean of 14 patients, after 8 weeks
[5] = of 11 patients with depressive symptoms prior to treatment, 4 weeks

Cc1ccc2c(c1)c1c(n2CCc2ccc(C)nc2)CCN(C)C1 [No. 10, 2,8-dimethyl-5-[2-(6-methyl-3-pyridyl)ethyl]-2,3,4,5-tetrahydro-1H-pyrido[4,3-b]indole]
2. Orientation in space, Changes (8 weeks) [1]: +1 and +0.5 | 4. Memory for the present, Changes (8 weeks) [1]: −0.5 (2×) and +1 and +0.5 (4×) | 5. Life in the past, Changes (8 weeks) [1]: +0.5 (4×) and +1 (2×) | 6b. Difficulty in finding words, Changes (8 weeks) [1]: 0 and −0.5 | 6c. Naming of objects, Changes (8 weeks) [1]: +0.5 (3×) and +1 | 7. Concentration, Changes (8 weeks) [1]: −0.5 (2×) and +0.5 | 8b. Lower spirits, Changes (8 weeks) [1]: +1.5 and +1 (3×) and +2 and −1 and +0.5 and −5 | 9. Delirium, Changes (8 weeks) [1]: +1.5 and 0 (2×) and +2 | 13. Irritability, Changes (8 weeks) [1]: +1.5 and +1 (2×) and −1.5 and 0 | 14. Anxiety, Changes (8 weeks) [1]: +0.5 and +1 and −0.5 | 16. Headache, Changes (8 weeks) [1]: +0.5 and +2 and +1.5 and −1 | 17. Dizziness, Changes (8 weeks) [1]: 1 and −2 (2×) and +1 (2×) and −0.5 | 18. Tearfulness, Changes (8 weeks) [1]: +1 and +2 | 19. Spontaneous activity, Changes (8 weeks) [1]: +1 and 0 (3×) and −1 | 20. Elementary self-service, Changes (8 weeks) [1]: +1 and −1 | 6d. Performing instructions, Changes (8 weeks) [1]: −1.5 and −1 (2×) and +0.5 and +1 (2×) and 0 | aggravation or emergence of irritability (during treatment): Not a single observation | first emergence of delirium (during treatment): not a single case | Speech functions (items 6b, c, d): deteriorations, % [2]: 2.4% | Speech functions (items 6b, c, d): deteriorations, abs. [2]: 1 | Degree of irritability, M +/− m (after 4 weeks): 0.43 +/− 0.28 scores | Degree of irritability, M +/− m (after 8 weeks): 0.29 +/− 5.17 scores | Variations of cognitive function, M +/− m (mean of 7 patients with unprofound (mild) dementia, 4 weeks, listed as Demibon): +0.5 +/− 0.14 score | Variations of cognitive function, M +/− m (mean of 7 patients with unprofound (mild) dementia, 4 weeks, listed as dimebon): 0.5±0.14 score | Variations of cognitive function, M +/− m (mean of 7 patients with unprofound (mild) dementia, 8 weeks): +1.79 +/− 0.35 score | Values of cognitive functions, M +/− m (after 4 weeks): 5.5 +/− 0.79 score | Values of cognitive functions, M +/− m (after 8 weeks): 3.93 +/− 0.5 score | Marked depressive manifestation, M +/− m (after 4 weeks): 0.69 +/− 0.23 scores | Marked depressive manifestation, M +/− m (after 8 weeks): 0.69 +/− 0.18 scores | Intensity of headache, M +/− m (after 4 weeks): 0.45 +/− 0.29 scores | Intensity of headache, M +/− m (after 8 weeks): 0.9 +/− 0.31 scores | Variations of cognitive function, M +/− m (mean of 14 patients, 4 weeks): −0.43 +/− 0.15 score | Variations of speech function, M +/− m (mean of 14 patients, 4 weeks): −0.18 +/− 0.14 | Variations of cognitive function, M +/− m (mean of 14 patients, 8 weeks): +1.14 +/− 0.26 score | Variations of speech function, M +/− m (mean of 14 patients, 8 weeks): −0.04 +/− 0.22 | Evaluation of speech function, M +/− m [3]: 1.61 +/− 0.44 scores | Values of cognitive function (sum of first 5 scale points), M +/− m [3]: 8.32 +/− 0.93 score | Evaluation of speech function, M +/− m [4]: 1.39 +/− 0.47 scores | Values of cognitive function (sum of first 5 scale points), M +/− m [4]: 7.21 +/− 0.82 score | Cognitive functions (first 5 scale points): improvements, % (moderate (by 1 score), 4 weeks): 5.7% | Cognitive functions (first 5 scale points): improvements, abs. (moderate (by 1 score), 4 weeks): 4 | Speech functions (items 6b, c, d): deteriorations, % (moderate (by 1 score), 4 weeks): 2.4% | Speech functions (items 6b, c, d): deteriorations, abs. (moderate (by 1 score), 4 weeks): 1 | Speech functions (items 6b, c, d): improvements, % (moderate (by 1 score), 4 weeks): 7.14% | Speech functions (items 6b, c, d): improvements, abs. (moderate (by 1 score), 4 weeks): 3 | Cognitive functions (first 5 scale points): improvements, % (moderate (by 1 score), 8 weeks): 8.6% | Cognitive functions (first 5 scale points): improvements, abs. (moderate (by 1 score), 8 weeks): 6 | Speech functions (items 6b, c, d): deteriorations, % (moderate (by 1 score), 8 weeks): 4.8% | Speech functions (items 6b, c, d): deteriorations, abs. (moderate (by 1 score), 8 weeks): 2 | Speech functions (items 6b, c, d): improvements, % (moderate (by 1 score), 8 weeks): 7.1% | Speech functions (items 6b, c, d): improvements, abs. (moderate (by 1 score), 8 weeks): 3 | number of patients showing no signs of tearfulness (of 5 patients with tearfulness prior to treatment, after four weeks): 4 patients | number of patients with abatement or complete cessation of headaches (after 4 weeks): Five | share of patients with abatement or complete cessation of headaches (after 4 weeks): 50% | number of patients with abatement or complete cessation of headaches (after 8 weeks): 3 patients | share of patients with abatement or complete cessation of headaches (after 8 weeks): 30% | number of patients in whom the depression abated [5]: 5 patients | share of patients in whom the depression abated [5]: 45% | number of patients with improvement of depression (of 11 patients with depressive symptoms prior to treatment, 8 weeks): 6 patients
